Drawing on patent publication US12018016B2, “Aryl sulfonyl (hydroxy) piperidines as CCR6 inhibitors” (CHEMOCENTRYX, INC., priority 2021, dated 2024), this text covers IC50 for 37 compounds.

The experiment deals with T1, human CCR6 (Homo sapiens, UniProt P51684).
T1 construct: expressed in transfected cells; host or cells: Ba/F3 cells (mouse pro-B line)
T1 sequence (P51684 1-374): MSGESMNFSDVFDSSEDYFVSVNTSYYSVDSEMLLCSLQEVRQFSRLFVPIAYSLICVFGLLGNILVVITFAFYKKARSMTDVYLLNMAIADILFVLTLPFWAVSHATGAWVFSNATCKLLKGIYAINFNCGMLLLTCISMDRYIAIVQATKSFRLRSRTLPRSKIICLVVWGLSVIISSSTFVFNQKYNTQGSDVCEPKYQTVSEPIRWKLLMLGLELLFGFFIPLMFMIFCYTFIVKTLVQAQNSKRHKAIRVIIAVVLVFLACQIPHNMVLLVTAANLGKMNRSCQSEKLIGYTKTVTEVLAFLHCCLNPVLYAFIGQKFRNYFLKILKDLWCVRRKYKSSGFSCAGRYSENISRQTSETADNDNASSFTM
Description: Migration assay (chemotaxis, ChemoTX). The note with it: hCCR6-transfected Ba/F3 cells in human serum, migration to recombinant human CCL20 10 nM, 37° C. 45 minutes; read-out: Potency (IC50 value in the migration assay). Type of experiment: cell-based. The method, boiled down: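 Ba/F3 cells transfected with human CCR6 and butyrate-primed for 24 h were suspended at 4 million/ml in human serum with compound, serially diluted from a 1 μM final top concentration. Cells migrated through a 5-μm polycarbonate membrane toward 10 nM human CCL20 for 45 min at 37 °C. Migrated cells were quantified by CyQUANT fluorescence.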

Take `Cc1c(-c2ccc(S(=O)(=O)N3CC[C@@H](Nc4ccc(C#N)cn4)[C@@H](O)C3)cc2)cnc2[nH]ccc12` [Example 33, 6-[[(3S,4R)-3-hydroxy-1-[4-(4-methyl-1H-pyrrolo[2,3-b]pyridin-5-yl)phenyl]sulfonyl-4-piperidyl]amino]pyridine-3-carbonitrile]: the IC50 is < 1 nM.
Turning to `O=S(=O)(c1ccc(-c2ccnc(N3CCCCC3)c2)cc1)N1CC[C@@H](Nc2ccc(C(F)(F)F)cn2)[C@@H](O)C1` [Compound 145], the IC50 was < 1 nM.
On to `O=C1C[C@H](Nc2ccc(-c3ccc(S(=O)(=O)N4CC[C@@H](Nc5ccc(C(F)(F)F)cn5)[C@@H](O)C4)cc3)cn2)CN1` [Compound 167], for which the IC50 is < 1 nM.
The same measure for `O=C(NO)c1cc(-c2ccc(S(=O)(=O)N3CC[C@@H](Nc4ccc(C(F)(F)F)cn4)[C@@H](O)C3)cc2)ccn1` [Compound 74, N-hydroxy-4-(4-(((3S,4R)-3-hydroxy-4-((5-(trifluoromethyl)pyridin-2-yl)amino)piperidin-1-yl)sulfonyl)phenyl)picolinamide]: 1 to 10 nM.
In the case of `CNC(=O)N1Cc2cc(-c3ccc(S(=O)(=O)N4CC[C@@H](Nc5ccc(C(F)(F)F)cn5)[C@@H](O)C4)cc3)cc(C)c2C1` [Compound 188] it was < 1 nM; in that of `O=C1CNCCN1c1cc(-c2ccc(S(=O)(=O)N3CC[C@@H](Nc4ccc(C(F)(F)F)cn4)[C@@H](O)C3)cc2)ccn1` [Compound 88, 1-(4-(4-(((3S,4R)-3-hydroxy-4-((5-(trifluoromethyl)pyridin-2-yl)amino)piperidin-1-yl)sulfonyl)phenyl)pyridin-2-yl)piperazin-2-one], 1 to 10 nM.
Turning to `CN(C)CCN(C)c1cc(-c2ccc(S(=O)(=O)N3CC[C@@H](Nc4ccc(C(F)(F)F)cn4)[C@@H](O)C3)cc2)ccn1` [Compound 138], the IC50 is < 1 nM.
With `NC(=O)c1cc(-c2ccc(S(=O)(=O)N3CC[C@@H](Nc4ccc(Cl)cn4)[C@@H](O)C3)cc2)ccn1` [Compound 87], the IC50 is < 1 nM.
Take `CN1CC(N(C)c2ccc(-c3ccc(S(=O)(=O)N4CC[C@@H](Nc5ccc(C(F)(F)F)cn5)[C@@H](O)C4)cc3)cn2)C1` [Compound 98]: the IC50 fell in the range of 1 to 10 nM.
For the compound `O=S(=O)(c1ccc(-c2cncc(N3CCNCC3)c2)cc1)N1CC[C@@H](Nc2ccc(C(F)(F)F)cn2)[C@@H](O)C1` [Compound 76, (3S,4R)-1-((4-(5-(piperazin-1-yl)pyridin-3-yl)phenyl)sulfonyl)-4-((5-(trifluoromethyl)pyridin-2-yl)amino)piperidin-3-ol], the IC50 lay within 1 to 10 nM.
The same measure for `O=S(=O)(c1ccc(-c2ccc(N3CC[C@H](O)C3)nc2)cc1)N1CC[C@@H](Nc2ccc(C(F)(F)F)cn2)[C@@H](O)C1` [Compound 175]: < 1 nM.
As for `Nc1cncc(-c2ccc(S(=O)(=O)N3CC[C@@H](Nc4ccc(C(F)(F)F)cn4)[C@@H](O)C3)cc2)c1` [Compound 110], the IC50 is < 1 nM.
In the case of `COc1c(-c2ccc(S(=O)(=O)N3CC[C@@H](Nc4ccc(C(F)(F)F)cn4)[C@@H](O)C3)cc2)cnc2[nH]ccc12` [Example 58, (3S,4R)-1-((4-(4-methoxy-1H-pyrrolo[2,3-b]pyridin-5-yl)phenyl)sulfonyl)-4-((5-(trifluoromethyl)pyridin-2-yl)amino)piperidin-3-ol] it was < 1 nM.
The same measure for `O=S(=O)(c1ccc(-c2ccc(N3CC4(COC4)C3)nc2)cc1)N1CC[C@@H](Nc2ccc(C(F)(F)F)cn2)[C@@H](O)C1` [Compound 93]: < 1 nM; for `N#Cc1ccc(N[C@@H]2CCN(S(=O)(=O)c3ccc(-c4ccnc(C(N)=O)c4)cc3)C[C@@H]2O)nc1` [Example 37, 4-(4-(((3S,4R)-4-((5-cyanopyridin-2-yl)amino)-3-hydroxypiperidin-1-yl)sulfonyl)phenyl)picolinamide]: < 1 nM.
For the compound `Nc1nnc2ccc(-c3ccc(S(=O)(=O)N4CC[C@@H](Nc5ccc(C(F)(F)F)cn5)[C@@H](O)C4)cc3)cn12` [Example 13, (3S,4R)-1-((4-(3-amino-[1,2,4]triazolo[4,3-a]pyridin-6-yl)phenyl)sulfonyl)-4-((5-(trifluoromethyl)pyridin-2-yl)amino)piperidin-3-ol], the IC50 is < 1 nM.
Turning to `Nc1n[nH]c2ccc(-c3ccc(S(=O)(=O)N4CC[C@@H](Nc5ccc(C(F)(F)F)cn5)[C@@H](O)C4)cc3)cc12` [Example 1, (3S,4R)-1-((4-(3-amino-1H-indazol-5-yl)phenyl)sulfonyl)-4-((5-(trifluoromethyl)pyridin-2-yl)amino)piperidin-3-ol], the IC50 was < 1 nM.
The same measure for `CC(C)(C)OC(=O)NCCn1cc(C#N)c2cc(-c3ccc(S(=O)(=O)N4CC[C@@H](Nc5ccc(C(F)(F)F)cn5)[C@@H](O)C4)cc3)cnc21` [Example 29, tert-Butyl (2-(3-cyano-5-(4-(((3S,4R)-3-hydroxy-4-((5-(trifluoromethyl)pyridin-2-yl)amino)piperidin-1-yl)sulfonyl)phenyl)-1H-pyrrolo[2,3-b]pyridin-1-yl)ethyl)carbamate]: < 1 nM; for `Cc1cc2[nH]nc(C#N)c2cc1-c1ccc(S(=O)(=O)N2CC[C@@H](Nc3ccc(C(F)(F)F)cn3)[C@@H](O)C2)cc1` [Example 36, 5-(4-(((3S,4R)-3-hydroxy-4-((5-(trifluoromethyl)pyridin-2-yl)amino)piperidin-1-yl)sulfonyl)phenyl)-6-methyl-1H-indazole-3-carbonitrile]: < 1 nM.
In the case of `O=S(=O)(c1ccc(-c2cnc3[nH]nc(-c4ncc[nH]4)c3c2)cc1)N1CC[C@@H](Nc2ccc(C(F)(F)F)cn2)[C@@H](O)C1` [Compound 191], the IC50 was < 1 nM.
The same measure for `CN(C)c1cncc(-c2ccc(S(=O)(=O)N3CC[C@@H](Nc4ccc(C(F)(F)F)cn4)[C@@H](O)C3)cc2)c1` [Compound 111]: < 1 nM.
Turning to `Nc1n[nH]c2cc(-c3ccc(S(=O)(=O)N4CC[C@@H](Nc5ccc(C(F)(F)F)cn5)[C@@H](O)C4)cc3)ccc12` [Example 55, (3S,4R)-1-((4-(3-amino-1H-indazol-6-yl)phenyl)sulfonyl)-4-((5-(trifluoromethyl)pyridin-2-yl)amino)piperidin-3-ol], the IC50 was < 1 nM.
The same measure for `O=C1Nc2ncc(-c3ccc(S(=O)(=O)N4CC[C@@H](Nc5ccc(C(F)(F)F)cn5)[C@@H](O)C4)cc3)cc2C12CC2` [Compound 212]: < 1 nM; for `CN1CCN(c2cc(-c3ccc(S(=O)(=O)N4CC[C@@H](Nc5ccc(C(F)(F)F)cn5)[C@@H](O)C4)cc3)ccn2)CC1` [Compound 113]: 10 to 1000 nM.
The same measure for `O=S(=O)(c1ccc(-c2ccc(N3CCC3)nc2)cc1)N1CC[C@@H](Nc2ccc(C(F)(F)F)cn2)[C@@H](O)C1` [Compound 100]: < 1 nM; for `Cn1c(-c2ccc(S(=O)(=O)N3CC[C@@H](Nc4ccc(C(F)(F)F)cn4)[C@@H](O)C3)cc2)cnc1C(N)=O` [Compound 71, 5-(4-(((3S,4R)-3-hydroxy-4-((5-(trifluoromethyl)pyridin-2-yl)amino)piperidin-1-yl)sulfonyl)phenyl)-1-methyl-1H-imidazole-2-carboxamide]: < 1 nM; for `COc1cnccc1-c1ccc(S(=O)(=O)N2CC[C@@H](Nc3ccc(C(F)(F)F)cn3)[C@@H](O)C2)cc1` [Compound 151]: 1 to 10 nM.
In the case of `Cc1cnc(C(N)=O)c(C)c1-c1ccc(S(=O)(=O)N2CC[C@@H](Nc3ccc(C(F)(F)F)cn3)[C@@H](O)C2)cc1` [Compound 204] it was < 1 nM; in that of `Nc1ccc(-c2ccc(S(=O)(=O)N3CC[C@@H](Nc4ccc(C(F)(F)F)cn4)[C@@H](O)C3)cc2)cn1` [Compound 160], < 1 nM; in that of `CN1CC2(C1)CN(c1cc(-c3ccc(S(=O)(=O)N4CC[C@@H](Nc5ccc(C(F)(F)F)cn5)[C@@H](O)C4)cc3)ccn1)C2` [Compound 142], 1 to 10 nM.
As to `NC(=O)c1cc(-c2ccc(S(=O)(=O)N3CC[C@@H](Nc4ccc(C(F)(F)F)cn4)[C@@H](O)C3)cc2)cc(N)n1` [Compound 202], the IC50 is < 1 nM.
The same measure for `Cc1cncc(C)c1-c1ccc(S(=O)(=O)N2CC[C@@H](Nc3ccc(C(F)(F)F)cn3)[C@@H](O)C2)cc1` [Compound 185]: < 1 nM; for `O=S(=O)(c1ccc(-c2nnc(N3CCOCC3)o2)cc1)N1CC[C@@H](Nc2ccc(C(F)(F)F)cn2)[C@@H](O)C1` [Compound 194]: 10 to 1000 nM; for `O=S(=O)(c1ccc(-c2ccnc(CO)c2)cc1)N1CC[C@@H](Nc2ccc(C(F)(F)F)cn2)[C@@H](O)C1` [Example 10, (3S,4R)-1-((4-(2-(hydroxymethyl)pyridin-4-yl)phenyl)sulfonyl)-4-((5-(trifluoromethyl)pyridin-2-yl)amino)piperidin-3-ol]: 1 to 10 nM.
Turning to `N[C@H]1C[C@H](Nc2cc(-c3ccc(S(=O)(=O)N4CC[C@@H](Nc5ccc(C(F)(F)F)cn5)[C@@H](O)C4)cc3)ccn2)C1` [Compound 128], the IC50 was < 1 nM.
In the case of `NC(=O)c1ccnc(-c2ccc(S(=O)(=O)N3CC[C@@H](Nc4ccc(C(F)(F)F)cn4)[C@@H](O)C3)cc2)c1` [Example 18, 2-(4-(((3S,4R)-3-Hydroxy-4-((5-(trifluoromethyl)pyridin-2-yl)amino)piperidin-1-yl)sulfonyl)phenyl)isonicotinamide] it was 1 to 10 nM.
In the case of `CN(C)C1CCN(c2cc(-c3ccc(S(=O)(=O)N4CC[C@@H](Nc5ccc(C(F)(F)F)cn5)[C@@H](O)C4)cc3)ccn2)CC1` [Compound 143] it was 1 to 10 nM.
